In ChEMBL document CHEMBL1134154, “1-Alkyl-3-amino-5-aryl-1H-[1,2,4]triazoles: novel synthesis via cyclization of N-acyl-S-methylisothioureas with alkylhydrazines and their potent corticotropin-releasing factor-1 (CRF(1)) receptor antagonist activities” (Bioorg Med Chem Lett, 2001) one finds Ki and inhibition data, which are given here for 21 compounds.

The target in the first assay is T1, Corticotropin-releasing factor receptor 1 (Homo sapiens, UniProt P34998).
T1 sequence (P34998 whole entry): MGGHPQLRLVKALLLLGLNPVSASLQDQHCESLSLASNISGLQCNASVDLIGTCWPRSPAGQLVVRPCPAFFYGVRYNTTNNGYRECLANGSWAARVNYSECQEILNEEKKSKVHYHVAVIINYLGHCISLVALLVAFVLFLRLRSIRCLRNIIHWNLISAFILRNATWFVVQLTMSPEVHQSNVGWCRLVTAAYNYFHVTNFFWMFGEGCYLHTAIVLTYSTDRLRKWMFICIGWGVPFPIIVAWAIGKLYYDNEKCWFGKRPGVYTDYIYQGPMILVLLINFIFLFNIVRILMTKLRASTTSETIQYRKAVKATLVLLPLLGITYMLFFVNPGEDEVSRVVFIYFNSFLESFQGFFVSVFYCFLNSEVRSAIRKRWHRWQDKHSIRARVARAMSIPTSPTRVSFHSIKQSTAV
The experiment in a line: Binding affinity to cloned human CRF1 receptor expressed in CHO cells using [125I]o-CRF as radioligand at 10 uM concentration; In activie. The assay is classed as cell-based.
Conditions: not given; call rule not given here
As to `CCCN(CCC)c1nc(-c2ccc(Cl)cc2Cl)n(CCO)n1`, the inhibition constant Ki (commonly a measure of affinity in units of concentration, obtained from inhibition or displacement) is listed as “Not Active”.

The next assay concerns the target T1, Corticotropin-releasing factor receptor 1. The assay can be described thus: Tested for in vivo activity and binding affinity to human Corticotropin releasing factor receptor 1; In activie.
Conditions: not given
Turning to `CCCN(CC1CC1)c1nc(C)nc(Nc2c(Cl)cc(Cl)cc2Cl)c1Cl`, the Ki result was “Not Active”.

With `CCCCN(CC)c1nc(C)nc2c1c(C)cn2-c1c(C)cc(C)cc1C` [CP-154526], the Ki result is reported as “Not Active”.

The target of another assay is T2, Corticotropin-releasing factor receptor 1 (Homo sapiens) (UniProt P34998).
T2 sequence (whole entry): T1 sequence (P34998 whole entry)
The assay can be described thus: Binding affinity to cloned human Corticotropin releasing factor receptor 1 expressed in CHO cells using [125I]o-CRF as radioligand. The assay is classed as cell-based. As to conditions: concentration not given here.
`C=CCn1nc(N(CCC)C(C2CC2)C2CC2)nc1-c1ccc(Cl)cc1Cl`: the inhibition (commonly the drop in the measured response relative to a control, in per cent) stood at 77%.

The target in a further assay is T1, Corticotropin-releasing factor receptor 1. The assay can be described thus: Inhibition of [125I]o-CRF binding to human Corticotropin releasing factor receptor 1 expressed in CHO cells.
Conditions: not given
The assay is classed as cell-based.
Compound `CCCN(CCC)c1nc(-c2ccc(Cl)cc2Cl)n(C)n1` returned a Ki of 2600 nM. This counts as single-digit micromolar.

Regarding `CCCN(c1nc(-c2ccc(Cl)cc2)n(C)n1)C(C1CC1)C1CC1`, the Ki was 33 nM.

For the compound `CCCN(c1nc(-c2ccc(Cl)cc2Cl)n(CC)n1)C(C1CC1)C1CC1`, the affinity, expressed as Ki, was 80 nM.

Compound `CCCN(c1nc(-c2c(C)cc(C)cc2C)n(CC)n1)C(C1CC1)C1CC1` registered a Ki of 310 nM. This Ki is about 3.9-fold higher than that of the compound before.

For the compound `CCCN(CCC)c1nc(-c2ccc(Cl)cc2Cl)n(CCO)n1`, the Ki was determined as 14 nM.

The compound `CCCN(c1nc(-c2ccc(Cl)cc2OC)n(C)n1)C(C1CC1)C1CC1` gave a Ki of 26 nM.

Take `CCCN(c1nc(-c2ccc(Cl)cc2C)n(C)n1)C(C1CC1)C1CC1`: the inhibition constant Ki was 22 nM.

For the compound `C=CCn1nc(N(CCC)C(C2CC2)C2CC2)nc1-c1c(C)cc(C)cc1C`, the affinity, expressed as Ki, was 2200 nM.

`CCCN(c1nc(-c2cc(F)c(Cl)cc2Cl)n(C)n1)C(C1CC1)C1CC1`: the inhibitory constant (Ki) was 15 nM.

`CCCN(c1n[nH]c(-c2ccc(Cl)cc2Cl)n1)C(C1CC1)C1CC1` registered a Ki of 2400 nM.

As to `CCCN(c1nc(-c2c(C)cc(C)cc2C)n(C)n1)C(C1CC1)C1CC1`, the affinity, expressed as Ki, was 120 nM.

As to `CCCN(c1nc(-c2ccc(Cl)cc2Cl)nn1C)C(C1CC1)C1CC1`, the inhibition constant Ki is over 10000 nM.

In turn, `CCCN(c1nc(-c2ccc(Cl)cc2Cl)n(C)n1)C(C1CC1)C1CC1` gave a Ki of 9 nM.

Regarding `CCCN(CC1CC1)c1nc(-c2ccc(Cl)cc2Cl)n(C)n1`, the inhibition constant (Ki) is over 10000 nM.

In turn, `CCCN(c1nc(-c2ccc(Br)cc2C)n(C)n1)C(C1CC1)C1CC1` came in with an inhibition constant (Ki) of 10 nM.

The next assay has the same target. The assay can be described thus: Binding affinity to cloned human Corticotropin releasing factor receptor 1 expressed in CHO cells using [125I]o-CRF as radioligand at 10 uM concentration; In activie. The class given is cell-based.
Conditions: not given
Regarding `CCCN(CC1CC1)c1n[nH]c(-c2cccc3cc(OC)ccc23)n1`, the Ki result is listed as “Not Active”.

With `CCCN(CC1CC1)c1nc(-c2cccc3cc(OC)ccc23)n(C)n1`, the Ki entry is listed as “Not Active”.

Turning to `CCCN(CCC)c1n[nH]c(-c2ccc(Cl)cc2Cl)n1`, the inhibition constant (Ki) result is “Not Active”.
